Measured values from patent publication US20250090564A1, “BIOACTIVES AND THEIR USES” (AREPA IP LIMITED, priority 2022, published 2025).
Like-named read-outs stand apart in the source and are kept apart here.

How the values were obtained:
[1] = in vivo; cited from earlier work
[2] = tested on: MAO-A and B; details: irreversible, non-selective inhibitor; cited from earlier work
[3] = In vitro digestion of blackcurrant juice concentrate (pepsin/acid, bile salts/pancreatin), LCMS; assay type: in vitro ADME
Description: Samples were taken at the end of 1st step and at 30 min intervals in the 2nd step to give 6 samples for analysis. The samples will be examined (LCMS) for the level of sarmentosin and sarmentosin esters and compared with the feed material. The two samples were treated as shown below in Table 17 to replicate digestion. [table] Samples taken from the subsequent treatments were stored frozen until required for analysis. The samples were all a similar volume and concentration of original juice. Analysis was performed using LCMS (method described in the earlier work). Samples were prepared in two ways, 1. addition of methanol to precipitate any protein or 2. Direct sampling of neat solution after centrifugation.

[4] = biological target: T1, human enzyme MAO-B (Homo sapiens, UniProt P27338); assay: MAO-Glo assay kit, MAO-B; assay type: biochemical; details: highest concentration tested
T1 sequence (P27338 1-520): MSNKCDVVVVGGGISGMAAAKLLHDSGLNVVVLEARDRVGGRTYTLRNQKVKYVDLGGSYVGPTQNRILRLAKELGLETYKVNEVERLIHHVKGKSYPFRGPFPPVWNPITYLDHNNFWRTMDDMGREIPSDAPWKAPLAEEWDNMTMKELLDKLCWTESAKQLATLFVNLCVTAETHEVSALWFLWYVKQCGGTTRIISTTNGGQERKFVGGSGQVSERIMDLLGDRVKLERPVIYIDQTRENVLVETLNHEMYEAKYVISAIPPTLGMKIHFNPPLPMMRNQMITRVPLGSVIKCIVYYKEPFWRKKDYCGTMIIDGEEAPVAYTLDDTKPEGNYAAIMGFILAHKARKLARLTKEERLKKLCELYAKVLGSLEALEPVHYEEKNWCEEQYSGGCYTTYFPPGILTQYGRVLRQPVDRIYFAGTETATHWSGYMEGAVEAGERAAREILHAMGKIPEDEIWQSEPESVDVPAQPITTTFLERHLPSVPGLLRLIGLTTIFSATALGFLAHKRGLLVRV
Description: (§1) Synthetic sarmentosin (BOC Sciences; Cat. No. B2703-149954) was diluted in PBS for the MAO inhibition assays. […] Briefly, samples were combined with the kit's luminogenic MAO substrate solution and human enzyme (MAO-A or MAO-B at a final concentration of 20 μg/mL) and incubated at room temperature for 1 h. Following incubation, the luciferin detection reagent were added to each sample and the change in luminescence was measured at room temperature over 40 min in a FLUOstar Omega plate reader (BMG FluoStar Optima, Alphatech Systems, Auckland, New Zealand). […] All samples were analysed in triplicate on each plate.

[5] = biological target: T2, MAO-B (Sus scrofa, UniProt Q6PLK3); assay: S9 porcine liver microsome fraction assay, kynuramine to 4HQ by LCMS; details: qualitative statement
T2 sequence (Q6PLK3 2-520): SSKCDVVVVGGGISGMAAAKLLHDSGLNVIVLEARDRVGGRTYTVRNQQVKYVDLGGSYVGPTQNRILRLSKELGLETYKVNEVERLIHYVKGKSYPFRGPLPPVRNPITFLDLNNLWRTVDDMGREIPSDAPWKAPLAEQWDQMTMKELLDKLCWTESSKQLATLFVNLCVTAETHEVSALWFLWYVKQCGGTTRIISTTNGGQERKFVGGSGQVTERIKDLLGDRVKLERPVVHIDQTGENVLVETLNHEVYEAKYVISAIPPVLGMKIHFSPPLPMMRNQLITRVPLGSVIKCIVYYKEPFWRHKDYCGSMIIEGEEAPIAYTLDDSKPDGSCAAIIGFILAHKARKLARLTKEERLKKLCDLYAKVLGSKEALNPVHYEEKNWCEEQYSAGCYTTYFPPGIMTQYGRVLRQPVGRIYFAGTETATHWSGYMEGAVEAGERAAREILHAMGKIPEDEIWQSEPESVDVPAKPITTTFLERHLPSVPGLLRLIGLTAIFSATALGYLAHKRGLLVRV
Description: We used a porcine S9 liver microsome fraction as the source of the MAO-A and MAO-B enzymes.
The S9 porcine fraction was mixed with a specific MAO substrate (kynuramine) and mixed with the test sample and buffer. After 1 hr at 37° C. the reaction was halted by cooling and addition of 2N NaOH and acetonitrile. The centrifuged sample was then analysed using LCMS and the level of 4-quinolol (4HQ) product measured.
Samples were prepared in a 6-well plate (deep well format with 1.1 ml strip tubes). The assay was performed by diluting the crude S9 fraction with buffer (PBS, PH 7.4, diluted 1 in 5, 150 μl) and adding the test sample dissolved in buffer (75 ul). An aliquot of kynuramine was added (10 ul of 1 mg/ml) and the plate was placed in a 37 C water bath for 1 hr. The plate was cooled in ice water before addition of 20 ul 2N NaOH followed by 250 μl acetonitrile. The individual strip tubes were centrifuged, and samples taken from each for LCMS analysis.
The LCMS analysis was performed using a Cyano HPLC column eluted with 0.1% formic in water and acetonitrile. The LC run was isocratic mode (40% Acetonitrile) and the relative levels of 4 hydroxy quinoline (4HQ) and kynuramine determined from peak areas. […] Kynuramine is converted to 4HQ by the MAO-B enzyme.
Various juice samples, concentrates, powders and whole fruit were tested. […]

[6] = human, in vivo
Description: Plasma was separated from whole blood collected in lithium heparin tubes from participants by centrifugation at 4000×g for 10 min at 4° C. Plasma (1 mL) was spiked with 30 μL of 50% formic acid and 100 µL of 10 mmol ascorbic acid then stored at −80° C. prior to shipping on dry ice to the Physiological Chemistry laboratory.
The plasma samples (350 μL) were spiked with malvidin 3-O-galactoside and further acidified with phosphoric acid prior to clean up on a SOLAμ™ Solid Phase Extraction plate. Following washing with water and acetic acid, the retained anthocyanins were eluted with methanol: formic acid (95:5), evaporated to dryness then reconstituted in acetonitrile: formic acid: water (5:3:92) prior to analysis by Liquid Chromatography-Mass Spectrometry (LC-MS). Quantifications of individual and total anthocyanins were performed using the internal standard ratio method using MultiQuant software, and all results are reported as cyanidin 3-O-glucoside equivalents. Quantification of sarmentosin was performed using an external reference standard supplied by Stephen Bloor (Callaghan Institute).

[7] = biological target: T3, platelet MAO-B (Homo sapiens, UniProt P27338); assay: Acute sarmentosin pilot study, platelet MAO-B activity (Example 10); assay type: in vivo; details: for platelet MAO-B activity compared with baseline (0 h): 2 h after consumption; for platelet MAO-B activity compared with baseline: 4 h after consumption
T3 construct: platelets were isolated from whole blood; from tissue; host or cells: platelets isolated from venous blood of human participants
T3 sequence (P27338 1-520): T1 sequence (P27338 1-520)
Description: To determine the efficacy of sarmentosin in temporally inhibiting platelet MAO-B activity, we conducted a randomized, placebo-controlled crossover study. Human participants completed three treatment conditions (placebo, 42 mg sarmentosin, and 84 mg sarmentosin), with each trial day separated by at least 48 h.
Five healthy male adults aged between 25 and 36 years old were enrolled in this study. Participants were randomly allocated one of the three trial treatment beverages. All participants completed all three treatment arms of the study, and data from all participants were included in the study analysis. Enrolled participants were required to take part in three trial days where they consumed their allocated sarmentosin beverages or the placebo. Participants adhered to the same dietary restrictions and consumed the same standardized breakfast as previously described in the intervention study. A venous blood sample was collected at the beginning of each trial day, and then, participants were given their treatment beverage to consume immediately. […] Water was provided ad libitum during the trial day, and participants were seated in the clinical trial facility between venous blood collection time points.
Blackcurrant juice previously confirmed to contain sarmentosin was diluted 1:1 with RO-purified H2O and slowly applied to a column (10 cm diameter×125 cm height) filled with Diaion HP20 resin (Mitsubishi Chemical Industries, Japan). The eluant was collected until it was determined that most of sarmentosin had eluted and was quantified as described previously. Sarmentosin fractions were combined and concentrated using a rotary evaporator, and the resulting sarmentosin-rich fraction was then sterile filtered (Millipore Stericup (0.22 μM), Sigma-Aldrich).
Participants consumed a 250 mL beverage containing 42 and 84 mg total sarmentosin, similar to that present in one and two servings, respectively, of a commercial BC juice (Arepa Performance). Sucrose, BC flavouring, and coloring were added to the beverages to blind for taste and appearance. The placebo beverage was matched for sucrose, contained the same volume of added BC flavouring and coloring produced by Sensient Technologies (Auckland, New Zealand) as the sarmentosin beverages, and diluted to 250 mL to match for sweetness, appearance, and flavor.

[8] = biological target: T4, MAO-A (Homo sapiens, UniProt P21397); assay: MAO-Glo assay kit, MAO-A; assay type: biochemical; details: dose response curve, 1 h room temperature
T4 sequence (P21397 1-527): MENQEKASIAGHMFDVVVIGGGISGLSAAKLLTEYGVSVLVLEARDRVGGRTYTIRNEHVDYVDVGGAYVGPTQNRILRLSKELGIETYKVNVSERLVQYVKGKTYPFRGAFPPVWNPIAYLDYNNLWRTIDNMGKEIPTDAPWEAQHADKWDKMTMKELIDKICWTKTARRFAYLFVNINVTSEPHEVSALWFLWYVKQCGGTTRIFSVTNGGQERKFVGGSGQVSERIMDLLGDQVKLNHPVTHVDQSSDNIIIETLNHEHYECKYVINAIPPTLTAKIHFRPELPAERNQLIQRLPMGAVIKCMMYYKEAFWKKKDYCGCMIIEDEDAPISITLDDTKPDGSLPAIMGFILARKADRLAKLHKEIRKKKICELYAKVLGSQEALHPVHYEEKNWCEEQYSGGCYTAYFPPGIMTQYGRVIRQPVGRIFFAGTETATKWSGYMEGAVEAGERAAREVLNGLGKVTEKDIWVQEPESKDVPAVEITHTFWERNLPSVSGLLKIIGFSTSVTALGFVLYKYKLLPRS
Description: as §1

[9] = biological target: T4, MAO-A; design: purchased Sigma-Aldrich MAK295/296; details: reversible inhibitor; cited from earlier work

O=C(NCCN1CCOCC1)c1ccc(Cl)cc1 [Moclobemide]
time to reach peak concentrations [1]: approximately 1 hours

NNCCc1ccccc1 [Phenelzine]
duration of inhibition of MAO-A and B [2]: up to three

N#C/C(=C\CO[C@@H]1O[C@H](CO)[C@@H](O)[C@H](O)[C@H]1O)CO [sarmentosin, 4-(beta-D-glucopyranosyloxy)-2-(hydroxymethyl-2-butenenitrile)]
concentration after in vitro digestion steps [3]: increase | effect of final heating step (90 C. for 10 min) after digestion [3]: some degradation | inhibition at 250 µM [4]: 32% | MAO inhibition activity in S9-LCMS bioassay (level of 4HQ) [5]: the same activity | time of peak concentrations of sarmentosin in plasma [6]: 120 min | platelet MAO-B activity compared with baseline (0 h) ([7]; 42 mg sarmentosin): similarly inhibited platelet MAO-B activity | platelet MAO-B activity compared with baseline ([7]; 42 mg sarmentosin): MAO-B activity comparable to baseline | platelet MAO-B activity compared with baseline (0 h) ([7]; 84 mg sarmentosin): similarly inhibited platelet MAO-B activity | platelet MAO-B activity compared with baseline ([7]; 84 mg sarmentosin): MAO-B activity comparable to baseline | IC50 [8]: 3.55 µM

Cc1cccc(N2CC(CO)OC2=O)c1 (centres unmarked) [toloxatone]
duration of MAO-A inhibition before activity returns to baseline [9]: six

nigrumin-p-coumarate
concentration after in vitro digestion steps ([3]; esters: steps 3 through 5, sarmentosin: steps 3 and 4, FIGS. 32 and 33): decrease
